Data from patent US10160986B2, “Chemoenzymatic synthesis of heparin and heparan sulfate analogs” (The Regents of the University of California, priority 2011, dated 2018).
Read-outs that look alike come from different tables or passages of the source.

Columns and labels:
[1] = tested on: T1, MBP-KfiA-His6 (Escherichia coli); experiment: GlcNAcT donor substrate specificity of MBP-KfiA-His6 (Example 12); type: biochemical, E. coli; details: acceptor GlcAβ2AA 1 mM, UDP-sugar 1 mM, MnCl2 10 mM, KfiA 2.8 μg μl^−1, 24 h, 37° C.
T1 construct: made in house; host or cells: E. coli BL21(DE3) co-expressing chaperone plasmid pGro7
Description: (§1) PmHS2, KfiA, and related fusion proteins were expressed, purified, and characterized as described in Example 1. Reactions with UDP-sugars were carried out in duplicate at 37° C. in MES (100 mM, pH 6.5) containing UDP-GlcNAc or one of its derivatives (1 mM), GlcAβ2AA (1 mM), MnCl2 (10 mM) and KfiA (2.8 μg μl^−1) or PmHS2 (1.1 μg μl^−1) for 24 h. The reaction mixtures were stopped by adding ice-cold 10% (v/v) acetonitrile to make 100-fold dilutions and the mixtures were analyzed by HPLC as described for the pH profile.
(§2) Substrate specificity of the GlcNAcT activities of MBP-KfiA-his6 and his6-PmHS2. […] The reactions were easily analyzed by high performance liquid chromatography (HPLC) equipped with a fluorescence detector using an excitation wavelength of 315 nm and an emission wavelength of 400 nm to determine the ratio of the fluorescent disaccharide product formed and the fluorescent GlcAβ2AA acceptor.

His6-PmHS2 = experiment: GlcNAcT donor substrate specificity of His6-PmHS2 (Example 12); type: biochemical, Pasteurella multocida; details: acceptor GlcAβ2AA 1 mM, UDP-sugar 1 mM, MnCl2 10 mM, PmHS2 1.1 μg μl^−1, 24 h, 37° C.
Description: as §1, §2

PmHS2 [2] = experiment: Donor substrate specificity of PmHS2 by HPLC (Example 1); type: biochemical, Pasteurella multocida; details: acceptor GlcAα2AA 1 mM, UDP-sugar 1 mM, MnCl2 10 mM, pH 6.5, 37° C.
Description: pH profile by HPLC. Typical enzymatic assays were performed in a 10 μl reaction mixture containing a buffer (100 mM) with a pH in the range of 4.0-10.0, UDP-GlcNAc (1 mM), GlcAβ2AA (1 mM), MnCl2 (10 mM) and KfiA (9.0 μg) or PmHS2 (0.25 μg). Buffers used were: Na2HPO4/citric acid, pH 4.0; MES, pH 5.0-6.5; TrisHCl, pH 7.0-9.0; and CAPS, pH 10.0. Reactions were allowed to proceed for 30 min at 37° C. and were quenched by adding ice-cold 10% (v/v) acetonitrile to make 100-fold dilutions. The samples were then kept on ice until an aliquot of 8 μl was injected and analyzed by a Shimadzu LC-2010A system equipped with a membrane on-line degasser, a temperature control unit and a fluorescence detector. A reverse phase Premier C18 column (250 9 4.6 mm I.D., 5 μm particle size, Shimadzu) protected with a C18 guard column cartridge was used. The mobile phase was 25% (v/v) acetonitrile. The fluorescent compounds GlcAβ2AA and GlcNAcα1-4GlcAβ2AA were detected by excitation at 315 nm and emission at 400 nm.
Substrate specificity of KfiA and PmHS2. All reactions were carried out in duplicate at 37° C. in MES (100 mM, pH 6.5) containing an UDP-GlcNAc or its derivatives (1 mM), […] (1 mM), MnCl2 (10 mM) and KfiA ([…] PmHS2 (2.5×10^−2 μg μl^−1). At 30 min, 4 h or 16 h, aliquots of reaction mixture were withdrawn and were quenched by adding ice-cold 10% (v/v) acetonitrile to make 100-fold dilutions. The assays were analyzed by HPLC.

PmHS2 [3] = experiment: Small-scale PmHS2 donor substrate test by TLC; type: biochemical, Pasteurella multocida; details: GlcAβ2AAMe 10 mM, donor 15 mM, MgCl2 10 mM, PmHS2 0.5 mg/mL, pH 7.5, 37° C., 12 hr
Description: Prior to applying the one-pot three-enzyme system shown in FIG. 16 to the preparative-scale synthesis of the disaccharides, UDP-GlcNAc and derivatives F17-1-F17-12 were tested as donor substrates for PmHS2 in small-scale reaction containing Tris-HCl buffer (100 mM, pH 7.5), GlcAβ2AAMe (10 mM), UDP-GlcNAc or a derivative (15 mM), MgCl2 (10 mM), and PmHS2 (0.5 mg/mL). The reactions were carried out at 37° C. for 12 hr and analyzed by thin layer chromatography (TLC).

NahK_ATCC55813 = NahK_ATCC55813 (Bifidobacterium longum subsp. longum, UniProt E8MF12, D7V/R348H); type: biochemical; parameters: made in house; host or cells: E. coli BL21(DE3); details: substrate 1 mM
Description: (§3) Substrates specificity assays. GlcNAc, GalNAc, and their derivatives (1 mM) were used as substrates in the presence of ATP (1 mM) and MgCl2 (5 mM) in a Tris-HCl buffer (pH 8.0, 200 mM) to analyze the substrate specificity of NahKs. Two concentrations (0.75 μM or 15 μM) of each NahK were used and the reactions were allowed to proceed for 10 min (for 0.75 μM NahK) or 30 min (for 15 μM NahK) at 37° C. […] All other conditions were the same as for GlcNAc, GalNAc, and their derivatives.
(§4) Capillary electrophoresis (CE) assays. Based on the detection of ADP and ATP in the reaction mixture by a UV detector, a capillary electrophoresis-based method was developed to directly measure the formation of ADP and N-acetylhexosamine-1-phosphate from ATP and N-acetylhexosamine for characterizing the activities of NahKs.

SpGalK = target: T2, SpGalK (Streptococcus pneumoniae serotype 4, UniProt Q97NZ6); experiment: Kinase reaction monitored by CE (ATP to ADP), SpGalK; type: biochemical, Streptococcus pneumoniae TIGR4; details: monosaccharide 15 mM, ATP 18 mM, 37° C.
T2 construct: made in house
Description: (§5) Capillary electrophoresis (CE) and thin-layer chromatograph (TLC) assays for kinase reactions. […] These conditions were similar to those used for preparative-scale synthesis. After 1 hr, 4 hr, and 24 hr, an aliquot of 8 μL was withdrawn from each reaction mixture, boiled in a water bath for 5 min and stored at −20° C. until being analyzed by capillary electrophoresis (CE) and TLC. For TLC analysis, 0.5 μL of each sample was directly spotted on TLC plates, developed using suitable developing solvents, and stained with anisaldehyde sugar stain. For CE analysis, 1.5 μL of each sample was diluted into 30 μL and subjected to CE analysis as described above for pH profile studies.

NahK_ATCC15697 = NahK_ATCC15697 (Bifidobacterium longum, UniProt B7GN78); experiment: Substrate specificity CE assay, NahK_ATCC15697; type: biochemical, Bifidobacterium infantis; details: substrate 1 mM
Description: as §3, §4

EcGalK = target: T3, EcGalK (Escherichia coli, UniProt P0A6T3); experiment: Kinase reaction monitored by CE (ATP to ADP), EcGalK; type: biochemical; details: monosaccharide 15 mM, ATP 18 mM, 37° C.
T3 construct: made in house
Description: as §5

AtGlcAK = target: T4, AtGlcAK (Arabidopsis thaliana, UniProt Q93ZC9, I297M); experiment: AtGlcAK substrate specificity CE assay; type: biochemical; details: High enzyme Conc. (2.1 μg in 20 μL, 60 min, 37° C.)
T4 construct: made in house; host or cells: E. coli BL21 (DE3)
Description: Substrate specificity assays. […] The reactions were quenched and assayed with the same method as those for pH profile. All reactions were performed in duplicates.

[4] = tested on: CC(=O)N[C@H]1C(O)O[C@H](CO)[C@@H](O)[C@@H]1O; experiment: purified protein, by the assay type; details: other: substrates ATP and GlcNAc, one varied, other fixed at 1 mM, 37° C., 10 min, pH 7.5
Description: (§6) Kinetics by CE assays. Reactions were carried out in duplicate at 37° C. for 10 min in a total volume of 20 μL in Tris-HCl buffer (200 mM, pH 7.5) containing MgCl2 (1 mM), ATP, GlcNAc or GalNAc, and NahK (0.25 μM when GlcNAc and ATP were used as substrates, 0.5 μM when GalNAc and ATP were used as substrates). Apparent kinetic parameters were obtained by varying the ATP concentration from 0.1-5.0 mM (0.1 mM, 0.2 mM, 0.4 mM, 1 mM, 2 mM, and 5 mM) at a fixed concentration of GlcNAc or GalNAc (1 mM), or varying the concentration of GlcNAc or GalNAc (0.1 mM, 0.2 mM, 0.4 mM, 1 mM, 2 mM, and 5 mM) at a fixed concentration of ATP (1 mM) and fitting the data to the Michaelis-Menten equation using Grafit 5.0.

[5] = tested on: Nc1ncnc2c1ncn2[C@@H]1O[C@H](COP(=O)(O)OP(=O)(O)OP(=O)(O)O)[C@@H](O)[C@H]1O; experiment: purified protein, by the assay type; details: one varied, other fixed at 1 mM, 37° C., 10 min, pH 7.5
Description: as §6

[6] = tested on: CC(=O)N[C@H]1C(O)O[C@H](CO)[C@H](O)[C@@H]1O; experiment: purified protein, by the assay type; details: other: substrates ATP and GalNAc, one varied, other fixed at 1 mM, 37° C., 10 min, pH 7.5
Description: as §6

[7] = 0.75 μM enzyme, 10 min at 37° C., ATP 1 mM
[8] = 15 μM enzyme, 30 min at 37° C., ATP 1 mM (Table 2)
[9] = other: substrates ATP and GalNAc
[10] = other: substrates ATP and GlcNAc

With `CC(=O)N[C@H]1[C@@H](OP(=O)(O)OP(=O)(O)OC[C@H]2O[C@@H](n3ccc(=O)[nH]c3=O)[C@H](O)[C@@H]2O)O[C@H](CN=[N+]=[N-])[C@@H](O)[C@@H]1O` [Compound F17-8, Uridine 5′-diphospho-2-acetamido-6-azido-2,6-dideoxy-α-D-glucopyranoside] the “donor substrate for MBP-KfiA-His6” value [1] was “can be used by MBP-KfiA-His6”, the “donor substrate for the α1-4GlcNAcT activity of His6-PmHS2” value (His6-PmHS2) was “suitable donor substrates for His6-PmHS2” and the “donor substrate for PmHS2” value (PmHS2 [2]) was “is a substrate for PmHS2”. For the same compound, the “donor substrate for PmHS2” value (PmHS2 [3]) was “tolerable donor substrates”.
For `[N-]=[N+]=NC1C(O)OC(CO)[C@H](O)C1O` (stereo partly shown) [GalN3], the “Percentage Conversion” value (NahK_ATCC55813; [7]) was 0%, the “Percentage Conversion” value (NahK_ATCC55813; [8]) was 4.3 ± 0.1% and the “ATP Conversion” value (SpGalK; 1 hr) was 45.7%. The “ATP Conversion” value (SpGalK; 4 hr) was 79.0%, the “ATP Conversion” value (SpGalK; 24 hr) was 81.2% and the “Percentage Conversion” value (NahK_ATCC15697; [7]) was 0%. For the same compound, the “Percentage Conversion” value (NahK_ATCC15697; [8]) was 7.6 ± 0.1%.
For `CC(=O)NC1C(O)OC(CO)[C@H](O)[C@@H]1O` (stereo partly shown) [GalNAc, N-acetylgalactosamine], the “Percentage Conversion” value (NahK_ATCC55813; [7]) was 19.9 ± 0.1%, the “ATP Conversion” value (SpGalK; 1 hr) was 11.8% and the “ATP Conversion” value (SpGalK; 4 hr) was 24.7%. For the same compound, the “ATP Conversion” value (SpGalK; 24 hr) was 69.5% and the “Percentage Conversion” value (NahK_ATCC15697; [7]) was 12.5 ± 0.1%.
For `OCC1OC(O)CC(O)[C@H]1O` (stereo partly shown) [T6-2 2-deoxyGal, 2-deoxyGal], the “ATP Conversion” value (SpGalK; 1 hr) was 80.3%, the “ATP Conversion” value (SpGalK; 4 hr) was 89.5% and the “ATP Conversion” value (EcGalK; 1 hr) was 78.5%. The “ATP Conversion” value (EcGalK; 4 hr) was 87.6%.
In the case of `N[C@H]1C(O)O[C@H](CO)[C@H](O)[C@@H]1O` (stereo partly shown) [T6-3 GalNH2, galactosamine], the “ATP Conversion” value (EcGalK; 1 hr) is reported as 90.2%.
With `O=C[C@H](O)[C@@H](O)[C@H](O)CO` [Xyl, xylose] the “Percentage conversion of ATP” value (AtGlcAK) was less than 5%.
With “NahK_ATCC15697 (Bifidobacterium longum subsp. infantis ATCC 15697 = JCM 1222 = DSM 20088)” the Km [4] was 0.06 ± 0.01 mM, the kcat [4] was 0.95 ± 0.01 s⁻¹ and the kcat/Km [4] was 15.8 s⁻¹ mM⁻¹. The Km [5, 9] was 0.08 ± 0.03 mM, the kcat [5, 9] was 0.38 ± 0.02 s⁻¹ and the kcat/Km [5, 9] was 4.8 s⁻¹ mM⁻¹. For the same compound, the Km [5, 10] was 0.10 ± 0.03 mM, the kcat [5, 10] was 1.1 ± 0.1 s⁻¹ and the kcat/Km [5, 10] was 11.0 s⁻¹ mM⁻¹. The Km [6] was 0.09 ± 0.05 mM, the kcat [6] was 0.46 ± 0.07 s⁻¹ and the kcat/Km [6] was 5.1 s⁻¹ mM⁻¹.
“NahK_ATCC55813 (Bifidobacterium longum subsp. longum JCM 1217; D7V/R348H)” was tested, and the Km [4] was 0.06 ± 0.01 mM, the kcat [4] was 1.1 ± 0.1 s⁻¹ and the kcat/Km [4] was 18.3 s⁻¹ mM⁻¹. For the same compound, the Km [6] was 0.08 ± 0.03 mM, the kcat [6] was 0.57 ± 0.04 s⁻¹ and the kcat/Km [6] was 7.1 s⁻¹ mM⁻¹.
